Assay results: PubChem BioAssay AID977606 (Broad Institute, 2014)
Values joined by “and” are separate entries in the source; they are usually repeats but may differ in a detail not shown here. Equal entries are not always repeated. Active and inactive are the calls of the source. The rule behind the calls is not given here.

The compounds below were run on INS-1E Gaussia luciferase insulin secretion, no glucose, luminescence (assay: insulin secretion activators without glucose, dose response, counter-screen for glucose-dependent insulin secretion activators, cell-based, INS-1E, Gaussia luciferase, luminescence, cherry-pick (AID 977606)).
Work on `CCCNC(=O)c1nnsc1S(=O)c1ccc(Cl)cc1` (centres undefined) yielded an AC40 of 1.16 µM. `COC(=O)C1=C(C)N(Cc2cccc(C(F)(F)F)c2)C(=NCc2ccc(OC)cc2)NC1c1ccc(F)cc1` (centres undefined) gave an AC40 of 8.44 µM. `CCOc1ccc(/C=N/NC(=O)c2cc(-c3ccco3)nc3ccccc23)cc1` showed an AC40 of 6.73 µM. Compound `COc1cc(/C=N/NC(=O)Nc2ccccc2)ccc1OCCOc1ccccc1C` has an AC40 of 1.92 µM. With `CC(=O)C1=C(S(=O)(=O)c2ccc(C)cc2)CS(=O)(=O)C1` the AC40 was 0.613 µM. With `COc1ccc(/C=N/NC(=O)c2ccc(COc3ccccc3Cl)o2)c(OC)c1C` the AC40 was 4.97 µM. For `CCCNC(=O)c1nnsc1S(=O)(=O)c1ccc(Cl)cc1`, the AC40 was 1.15 µM. `COc1ccc(/C=N/N(C(C)=O)c2nc(-c3ccc(C)cc3)cs2)cc1` gave an AC40 of 1.98 µM. `OC(c1ccccc1)(c1ccccc1)C1CCN(CCCOc2cccc(OC(F)(F)F)c2)CC1` gave an AC40 of 3.95 µM. With `CCCN1Cc2cccc(C(=O)NCc3ccccc3)c2C1=O` the AC40 was > 35 µM (inactive). `FC(F)(F)c1cc(CCN2CCNC[C@@H]2c2ccccc2)cc(C(F)(F)F)c1` showed an AC40 of 7.26 µM. `O=c1c2ccc(Cl)cc2[nH]c(=S)n1CCC1=CCCCC1` gave an AC40 of 2.15 µM. For `CC(C)(C)c1cc(NCCCn2ccnc2)n2ncc(-c3ccc(Cl)cc3)c2n1`, the AC40 was 4.39 µM. `COC(=O)C1=C(C)N(Cc2ccc(C(F)(F)F)cc2)C(=NCc2ccccc2)NC1c1ccc(Cl)cc1` (centres undefined) gave an AC40 of 10.8 µM. In the case of `COC(=O)c1ccc2c(=O)[nH]c(CSc3nc(-c4ccc(F)cc4)cs3)nc2c1`, the AC40 is reported as 4.39 µM. `O=C(Nc1ccc2c(c1)OCO2)N1C[C@@H]2N[C@H](C1)C2c1ccc(C=Cc2ccccc2)cc1` (some centres undefined) showed an AC40 of 11.7 µM. With `N/C(=N\OC(=O)COc1ccc(Cl)cc1Cl)c1cccnc1` the AC40 was 19.3 µM. `CCOc1nc(-c2ccccc2)c2cc(Br)ccc2n1` showed an AC40 of 21.9 µM. `CC(C)COc1ccc(Br)cc1CNC(C)(C)C` was tested, and the AC40 was > 35 µM (inactive). For `COC(=O)c1ccc2c(c1)NC(=O)C(N(CC(C)C)CC(C)C)S2` (centres undefined), the AC40 was 2.51 µM. `CCCCc1c(Cc2ccccc2)ncn1CCc1ccccc1OC` showed an AC40 of 9.34 µM. In the case of `Cc1ccc(C(=O)Oc2ccc(-c3nccc(-c4ccccn4)n3)cc2)cc1`, the AC40 is reported as 5.1 µM. In the case of `CCOC(=O)Cn1c(=NC(=O)c2nc3ccccc3s2)sc2cc(S(N)(=O)=O)ccc21`, the AC40 is reported as 18.3 µM. `CCC(=O)Nc1ccc(NC(=S)NC(=O)c2oc3ccccc3c2C)cc1` gave an AC40 of 3.36 µM. `NC(N)=N/N=C/c1ccc(N(c2ccccc2)c2ccccc2)cc1` was tested, and the AC40 was 4.06 µM. `CCCCCCCCN1C(=O)[C@@H](CC(=O)N2CCN(C(=O)c3ccco3)CC2)C[C@@]2(C(=O)OC)C1=C[C@H](C1CCCC1)O[C@@H]2C` showed an AC40 of 9.46 µM. `NS(=O)(=O)c1ccc(N=Cc2c(O)n(C3CCCCC3)c(=O)n(C3CCCCC3)c2=O)cc1` showed an AC40 of 15.1 µM. For `CCN(Cc1ccccc1)S(=O)(=O)c1ccc(C(=O)Nc2nnc(C)o2)cc1`, the AC40 was 0.0558 µM. For `COc1ccc(NC(=O)c2sc3nc(N4CCOCC4)c4c(c3c2N)CC(C)(C)OC4)c(OC)c1`, the AC40 was 6.06 µM. In the case of `C[C@H](CO)N1C[C@H](C)[C@@H](CN(C)C(=O)Cc2ccccn2)Oc2cc(C#C[C@@H](C)O)ccc2S1(=O)=O`, the AC40 is reported as 18 µM. Compound `c1ccc(Cn2nnc3c(N4CCc5ccccc54)ncnc32)cc1` has an AC40 of 6.35 µM. `CCn1c(O)c(/C=N/N=C/c2ccc(OC)cc2)c2cc(C3=NNC(=O)CC3)ccc21` gave an AC40 of 4.2 µM. In the case of `CCCCc1c(-c2ccccc2OC)ncn1C(C)c1ccc(Cl)cc1` (centres undefined), the AC40 is reported as 7.72 µM. For `Cc1ccc(-c2ccc(C3[C@@H]4CN(C(=O)Nc5ccc(C(F)(F)F)cc5)C[C@H]3N4)cc2)cc1` (some centres undefined), the AC40 was 1.17 µM and 2.2 µM. `COc1ccc(-c2cc3ccccc3oc2=O)cc1NC(=S)NC(=O)c1ccc2c(c1)OCCO2` was tested, and the AC40 was 1.2 µM. `Cc1cc(OCCCN2CCC(C(O)(c3ccccc3)c3ccccc3)CC2)ccc1Br` gave an AC40 of 3.84 µM. Work on `CCOc1cc(N2CCOCC2)c(OCC)cc1NC(=O)COC(=O)c1cc2ccccc2cc1O` yielded an AC40 of 4.74 µM. `Clc1ccc(-c2ccnc(Oc3cc(Cl)ccc3Cl)n2)cc1` showed an AC40 of 6.7 µM. In the case of `Cc1ccc(-n2sc3cc(F)ccc3c2=O)c(C)c1`, the AC40 is reported as 0.883 µM. In the case of `CC(=O)Oc1ccc(Cl)cc1/C=C/c1ccc2ccccc2n1`, the AC40 is reported as 9.46 µM. Compound `COc1ccc(-n2sc3ccccc3c2=O)cc1` has an AC40 of 0.759 µM. `CCCCCCC1CCC(C(=O)Nn2c(C)nc3ccccc3c2=O)CC1` (centres undefined) was tested, and the AC40 was 14.8 µM. With `CCOC(=O)c1c(-n2cnnn2)sc2c1CCCC2` the AC40 was > 35 µM (inactive). In the case of `COCCN(CCOC)Cc1cc(=O)oc2cc(OC)c(Cl)cc12`, the AC40 is reported as > 35 µM (inactive). In the case of `Cc1cc(S(=O)(=O)Nc2nc(CN3CCOCC3)nc3sc4c(c23)CCC4)ccc1F`, the AC40 is reported as > 35 µM (inactive). `CC(=O)Nc1ccc(Nc2nc(-c3c(C)nc4ccccn34)cs2)cc1` showed an AC40 of 4.46 µM. For `COc1cc(NC(=O)c2cccc(C)c2)ccc1NC(=O)c1cc2ccccc2o1`, the AC40 was 2.21 µM. In the case of `O=C(Nc1cccnc1)/C(N=Nc1cccnc1)=C(\O)c1ccccc1`, the AC40 is reported as > 35 µM (inactive). For `Oc1ccccc1C1SC(c2ccccc2O)SC(c2ccccc2O)S1` (centres undefined), the AC40 was 5.36 µM. `Cc1ccc2nc(-c3ccc(NC(=O)COC(=O)c4ccco4)cc3)sc2c1` was tested, and the AC40 was 3.8 µM. `CC1(C(=O)NCC2CCCCC2)CCN1CCc1ccccc1` (centres undefined) was tested, and the AC40 was 17.9 µM. `Cc1ccc(Oc2ncc(-c3ccc(Cl)cc3)cn2)cc1` showed an AC40 of 4.48 µM. `CS(=O)(=O)c1ccc2nc(NC(=O)Nc3ccc(Cl)c(Cl)c3)sc2c1` was tested, and the AC40 was 1.92 µM. With `CCOC(=O)c1ccc(Nc2ncnc3ccc(C)cc23)cc1` the AC40 was 11.5 µM.
